In PubChem BioAssay AID1918946 (Molecular Pharmacology Branch, DTP, NCI, 2023):

Test system: 885512-296-R-J2-PDC complex spheroid viability
Test: Anticancer human tumor 885512-296-R-J2-PDC patient-derived breast carcinoma cell line growth inhibition
Conditions: for IC50: curve of first compound; for viability, T/C: stronger effect = lower value
Summary of the method: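 Complex spheroids of tumor cells with HUVEC and human MSCs, exposed to iadademstat combined with other agents. Each agent tested in half-log steps from near clinical Cmax (else 10 microM top), DMSO ≤0.25%.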

[1] = second compound 0.1 µM, first compound 0.0316 µM
[2] = second compound 0.1 µM, first compound 0.1 µM
[3] = second compound 0.316 µM, first compound 0.0316 µM
[4] = second compound 0.316 µM, first compound 0.1 µM
[5] = second compound 1 µM, first compound 0.0316 µM
[6] = second compound 1 µM, first compound 0.1 µM
[7] = second compound 3.16 µM, first compound 0.0316 µM
[8] = second compound 3.16 µM, first compound 0.1 µM
[9] = second compound 10 µM, first compound 0.0316 µM
[10] = second compound 10 µM, first compound 0.1 µM
[11] = second compound 0.1 µM, first compound 0.000949 µM
[12] = second compound 0.1 µM, first compound 0.003 µM
[13] = second compound 0.1 µM, first compound 0.00949 µM
[14] = second compound 0.1 µM, first compound 0.03 µM
[15] = second compound 0.1 µM, first compound 0.0949 µM
[16] = second compound 0.1 µM, first compound 0.3 µM
[17] = second compound 0.316 µM, first compound 0.000949 µM
[18] = second compound 0.316 µM, first compound 0.003 µM
[19] = second compound 0.316 µM, first compound 0.00949 µM
[20] = second compound 0.316 µM, first compound 0.03 µM
[21] = second compound 0.316 µM, first compound 0.0949 µM
[22] = second compound 0.316 µM, first compound 0.3 µM
[23] = second compound 1 µM, first compound 0.000949 µM
[24] = second compound 1 µM, first compound 0.003 µM
[25] = second compound 1 µM, first compound 0.00949 µM
[26] = second compound 1 µM, first compound 0.03 µM
[27] = second compound 1 µM, first compound 0.0949 µM
[28] = second compound 1 µM, first compound 0.3 µM
[29] = second compound 3.16 µM, first compound 0.000949 µM
[30] = second compound 3.16 µM, first compound 0.003 µM
[31] = second compound 3.16 µM, first compound 0.00949 µM
[32] = second compound 3.16 µM, first compound 0.03 µM
[33] = second compound 3.16 µM, first compound 0.0949 µM
[34] = second compound 3.16 µM, first compound 0.3 µM
[35] = second compound 10 µM, first compound 0.000949 µM
[36] = second compound 10 µM, first compound 0.003 µM
[37] = second compound 10 µM, first compound 0.00949 µM
[38] = second compound 10 µM, first compound 0.03 µM
[39] = second compound 10 µM, first compound 0.0949 µM
[40] = second compound 10 µM, first compound 0.3 µM
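Note: spheroids exposed to agents for 7 days before viability read.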

SMILES: CC[C@@]1(O)C(=O)OCc2c1cc1n(c2=O)Cc2cc3c(CN(C)C)c(O)ccc3nc2-1 + NC1CCC(NC2CC2c2ccccc2)CC1
- IC50 (second compound 0.1 µM): 0.000517 µM
- IC50 (second compound 0.316 µM): 0.000571 µM
- IC50 (second compound 1 µM): 0.00048 µM
- IC50 (second compound 3.16 µM): 0.000497 µM
- IC50 (second compound 10 µM): 0.000398 µM
- viability, T/C (second compound 0.1 µM, first compound 0.000316 µM): 74%
- viability, T/C (second compound 0.1 µM, first compound 0.001 µM): 17.8%
- viability, T/C (second compound 0.1 µM, first compound 0.00316 µM): 9.2%
- viability, T/C (second compound 0.1 µM, first compound 0.01 µM): 3.46%
- viability, T/C [1]: 7.41%
- viability, T/C [2]: 12.3%
- viability, T/C (second compound 0.316 µM, first compound 0.000316 µM): 81.8%
- viability, T/C (second compound 0.316 µM, first compound 0.001 µM): 19.7%
- viability, T/C (second compound 0.316 µM, first compound 0.00316 µM): 7.03%
- viability, T/C (second compound 0.316 µM, first compound 0.01 µM): 3.42%
- viability, T/C [3]: 5.16%
- viability, T/C [4]: 7.04%
- viability, T/C (second compound 1 µM, first compound 0.000316 µM): 66.9%
- viability, T/C (second compound 1 µM, first compound 0.001 µM): 20.4%
- viability, T/C (second compound 1 µM, first compound 0.00316 µM): 6.72%
- viability, T/C (second compound 1 µM, first compound 0.01 µM): 5.59%
- viability, T/C [5]: 3.12%
- viability, T/C [6]: 4.36%
- viability, T/C (second compound 3.16 µM, first compound 0.000316 µM): 71.7%
- viability, T/C (second compound 3.16 µM, first compound 0.001 µM): 16.6%
- viability, T/C (second compound 3.16 µM, first compound 0.00316 µM): 5.15%
- viability, T/C (second compound 3.16 µM, first compound 0.01 µM): 6.21%
- viability, T/C [7]: 2.51%
- viability, T/C [8]: 2.21%
- viability, T/C (second compound 10 µM, first compound 0.000316 µM): 59.4%
- viability, T/C (second compound 10 µM, first compound 0.001 µM): 13.6%
- viability, T/C (second compound 10 µM, first compound 0.00316 µM): 5.78%
- viability, T/C (second compound 10 µM, first compound 0.01 µM): 3.89%
- viability, T/C [9]: 2.72%
- viability, T/C [10]: 1.8%

SMILES: CCc1c2c(nc3ccc(O)cc13)-c1cc3c(c(=O)n1C2)COC(=O)[C@]3(O)CC + NC1CCC(NC2CC2c2ccccc2)CC1
- IC50 (second compound 0.1 µM): < 0.000949 µM
- IC50 (second compound 0.316 µM): < 0.000949 µM
- IC50 (second compound 1 µM): < 0.000949 µM
- IC50 (second compound 3.16 µM): < 0.000949 µM
- IC50 (second compound 10 µM): < 0.000949 µM
- viability, T/C [11]: 5.05%
- viability, T/C [12]: 2.28%
- viability, T/C [13]: 7.01%
- viability, T/C [14]: 6.9%
- viability, T/C [15]: 6.49%
- viability, T/C [16]: 3.96%
- viability, T/C [17]: 2.42%
- viability, T/C [18]: 4.76%
- viability, T/C [19]: 4.46%
- viability, T/C [20]: 6.46%
- viability, T/C [21]: 6.66%
- viability, T/C [22]: 4.85%
- viability, T/C [23]: 4.94%
- viability, T/C [24]: 2.3%
- viability, T/C [25]: 1.74%
- viability, T/C [26]: 1.31%
- viability, T/C [27]: 1.26%
- viability, T/C [28]: 3.93%
- viability, T/C [29]: 1.98%
- viability, T/C [30]: 2.41%
- viability, T/C [31]: 1.65%
- viability, T/C [32]: 4.17%
- viability, T/C [33]: 1.31%
- viability, T/C [34]: 6.19%
- viability, T/C [35]: 2.47%
- viability, T/C [36]: 1.92%
- viability, T/C [37]: 1.39%
- viability, T/C [38]: 3.6%
- viability, T/C [39]: 3.36%
- viability, T/C [40]: 1.14%

SMILES: Nc1ccccc1NC(=O)c1ccc(CNC(=O)OCc2cccnc2)cc1 + NC1CCC(NC2CC2c2ccccc2)CC1
- IC50 (second compound 0.1 µM): 0.106 µM
- IC50 (second compound 0.316 µM): 0.108 µM
- IC50 (second compound 1 µM): 0.123 µM
- IC50 (second compound 3.16 µM): 0.124 µM
- IC50 (second compound 10 µM): 0.0907 µM
- viability, T/C [13]: 123%
- viability, T/C [14]: 111%
- viability, T/C [15]: 50.6%
- viability, T/C [16]: 25.3%
- viability, T/C (second compound 0.1 µM, first compound 0.949 µM): 16.7%
- viability, T/C (second compound 0.1 µM, first compound 3 µM): 7.75%
- viability, T/C [19]: 115%
- viability, T/C [20]: 110%
- viability, T/C [21]: 51.7%
- viability, T/C [22]: 24.6%
- viability, T/C (second compound 0.316 µM, first compound 0.949 µM): 15.5%
- viability, T/C (second compound 0.316 µM, first compound 3 µM): 8.27%
- viability, T/C [25]: 116%
- viability, T/C [26]: 106%
- viability, T/C [27]: 52.9%
- viability, T/C [28]: 28.6%
- viability, T/C (second compound 1 µM, first compound 0.949 µM): 11.4%
- viability, T/C (second compound 1 µM, first compound 3 µM): 6.94%
- viability, T/C [31]: 123%
- viability, T/C [32]: 105%
- viability, T/C [33]: 54.1%
- viability, T/C [34]: 26.6%
- viability, T/C (second compound 3.16 µM, first compound 0.949 µM): 12.5%
- viability, T/C (second compound 3.16 µM, first compound 3 µM): 4.09%
- viability, T/C [37]: 107%
- viability, T/C [38]: 89.8%
- viability, T/C [39]: 46.5%
- viability, T/C [40]: 20.5%
- viability, T/C (second compound 10 µM, first compound 0.949 µM): 9.82%
- viability, T/C (second compound 10 µM, first compound 3 µM): 4.99%

SMILES: Nc1ccn(C2OC(CO)C(O)C2(F)F)c(=O)n1 (stereo not given) + NC1CCC(NC2CC2c2ccccc2)CC1
- IC50 (second compound 0.1 µM): < 0.000949 µM
- IC50 (second compound 0.316 µM): < 0.000949 µM
- IC50 (second compound 1 µM): < 0.000949 µM
- IC50 (second compound 3.16 µM): < 0.000949 µM
- IC50 (second compound 10 µM): < 0.000949 µM
- viability, T/C [11]: 2.54%
- viability, T/C [12]: 9.95%
- viability, T/C [13]: 3.52%
- viability, T/C [14]: 9.59%
- viability, T/C [15]: 5.54%
- viability, T/C [16]: 10.4%
- viability, T/C [17]: 2.51%
- viability, T/C [18]: 5.66%
- viability, T/C [19]: 5.62%
- viability, T/C [20]: 2.98%
- viability, T/C [21]: 10%
- viability, T/C [22]: 7.9%
- viability, T/C [23]: 10.2%
- viability, T/C [24]: 2.49%
- viability, T/C [25]: 2.65%
- viability, T/C [26]: 2.66%
- viability, T/C [27]: 5.52%
- viability, T/C [28]: 10.6%
- viability, T/C [29]: 2.36%
- viability, T/C [30]: 6.19%
- viability, T/C [31]: 2.7%
- viability, T/C [32]: 3.2%
- viability, T/C [33]: 2.6%
- viability, T/C [34]: 5.18%
- viability, T/C [35]: 4.44%
- viability, T/C [36]: 4.02%
- viability, T/C [37]: 3.03%
- viability, T/C [38]: 2.62%
- viability, T/C [39]: 4.97%
- viability, T/C [40]: 2.63%

SMILES: O=C(c1cc(Cc2n[nH]c(=O)c3ccccc23)ccc1F)N1CCN(C(=O)C2CC2)CC1 + NC1CCC(NC2CC2c2ccccc2)CC1
- IC50 (second compound 0.1 µM): 0.63 µM
- IC50 (second compound 0.316 µM): 0.519 µM
- IC50 (second compound 1 µM): 0.563 µM
- IC50 (second compound 3.16 µM): 0.583 µM
- IC50 (second compound 10 µM): 0.335 µM
- viability, T/C [1]: 104%
- viability, T/C [2]: 113%
- viability, T/C (second compound 0.1 µM, first compound 0.316 µM): 78.7%
- viability, T/C (second compound 0.1 µM, first compound 1 µM): 31.2%
- viability, T/C (second compound 0.1 µM, first compound 3.16 µM): 10.8%
- viability, T/C (second compound 0.1 µM, first compound 10 µM): 12.9%
- viability, T/C [3]: 111%
- viability, T/C [4]: 98.2%
- viability, T/C (second compound 0.316 µM, first compound 0.316 µM): 72.1%
- viability, T/C (second compound 0.316 µM, first compound 1 µM): 21.8%
- viability, T/C (second compound 0.316 µM, first compound 3.16 µM): 8.68%
- viability, T/C (second compound 0.316 µM, first compound 10 µM): 10.8%
- viability, T/C [5]: 84.7%
- viability, T/C [6]: 101%
- viability, T/C (second compound 1 µM, first compound 0.316 µM): 67.5%
- viability, T/C (second compound 1 µM, first compound 1 µM): 30.7%
- viability, T/C (second compound 1 µM, first compound 3.16 µM): 10.9%
- viability, T/C (second compound 1 µM, first compound 10 µM): 7.07%
- viability, T/C [7]: 100%
- viability, T/C [8]: 98.8%
- viability, T/C (second compound 3.16 µM, first compound 0.316 µM): 75.5%
- viability, T/C (second compound 3.16 µM, first compound 1 µM): 27.5%
- viability, T/C (second compound 3.16 µM, first compound 3.16 µM): 7.3%
- viability, T/C (second compound 3.16 µM, first compound 10 µM): 5.31%
- viability, T/C [9]: 96.1%
- viability, T/C [10]: 74.6%
- viability, T/C (second compound 10 µM, first compound 0.316 µM): 53.7%
- viability, T/C (second compound 10 µM, first compound 1 µM): 26.1%
- viability, T/C (second compound 10 µM, first compound 3.16 µM): 7.89%
- viability, T/C (second compound 10 µM, first compound 10 µM): 3.97%
